From patent US9222016B2, “Compound having fluorescent chromophore, ion concentration sensor including compound, reagent including compound, reagent kit provided with reagent, precursor of compound, and method for synthesizing compound” (National University Corporation Hokkaido University, priority 2011, dated 2015)

What was measured:
[1] = Fluorescence spectrum measurement of triazapentalenes (Example 3); assay type: physicochemical; settings: for λem (emission wavelength): excitation at absorption maximum; for φr (relative fluorescence quantum yield): dichloromethane, standard 9,10-bis(phenyl ethynyl)anthracene (0.96)
Experimental: The fluorescence spectrum of various triazapentalenes that have been synthesized by the same method as described in Example 1 and Example 2 was measured. A method for measurement will be specifically described below.
As triazapentalenes, compounds with the substituent group being a phenyl group, methoxyphenyl group, 2-cyanophenyl group, methoxycarbonylphenyl group, methyl ester group, diphenyl group, 3-cyanophenyl group, and nitrophenyl group were used.
(§1) Each of the above compounds was made into solution with concentration shown in Table 2 using dichloromethane as a solvent. […] The concentration of a sample solution was adjusted such that the intensity (Abs.) of absorption maximum wavelength was 0.100±0.005, and using a spectrophotometer (manufactured by Hitachi High-Technologies Corporation, U-3500), each fluorescence spectrum was measured with excitation wavelength (λex)=326 nm to 412 nm that was equal to absorption maximum wavelength. The fluorescence quantum yield was determined using 9,10-bis(phenyl ethynyl)anthracene (absolute fluorescence quantum yield=0.96) as a standard substance.
In FIG. 1 and Table 2, with regard to a substituent group, Ph represents a phenyl group, Me represents a methyl group, CO2Me represents a methyl ester group, OMe represents a methylalkoxy group, and CN represents a cyano group. Further, in Table λex represents excitation wavelength, ε represents a molar extinction coefficient, λem represents emission wavelength, φr represents a relative fluorescence quantum yield using 9,10-bis(phenyl ethynyl)anthracene (absolute fluorescence quantum yield=0.96) as a standard, and “−” represents no measurement data available.

[2] = Maximum absorption wavelength, maximum fluorescence wavelength and fluorescence quantum yield (Example 6); assay type: physicochemical; settings: same manner as Example 3
Experimental: as §1
For each of the compounds shown in Table 3, the maximum absorption wavelength (λabs^max), maximum fluorescence wavelength (λem^max), and fluorescence quantum yield (ΦF) were measured. Further, the Hammett constant (σp) of substituent group was together described in Table 3. In Table 3, “-” represents no measurement data available. The measurement of the absorption wavelength, fluorescence wavelength, and fluorescence quantum yield was carried out in the same manner as described in Example 3. Here, a method of synthesizing compounds of 1o^a and 1r will be later described in Example 8. Compounds of 1e, 1n, 1f, 1g, 1l, 1k, 1h, and 1m, which are shown in Table 3 were synthesized by the method and condition described in Examples 1 to 2. Further, the compound 1a shown in Table 3 was synthesized under the under the same condition as in Example 1 and Example 2 except that a CO2CH3 part in the chemical formula 13 of the reaction formula (5) was replaced with a hydrogen atom. Thereby, the compound 1a having a triazapentalene backbone whose R^5 position was bound with the hydrogen atom was obtained.

[3] = substituent at R^5; cited from earlier work
[4] = Solvatochromic fluorescence of triazapentalenes in various solvents (Example 4); assay type: physicochemical; settings: dichloromethane, acetonitrile, benzene
Experimental: The fluorescence of a triazapentalene compound whose substituent group was -PhCN was measured in various solvents. A method for measurement will be specifically described below.
As solvents, dichloromethane (manufactured by Junsei Chemical Co., Ltd.), acetonitrile (manufactured by Kanto Chemical Co., Inc.), benzene (manufactured by Nacalai Tesque, Inc.), and acetone (manufactured by Nacalai Tesque, Inc.) were individually used.
Each of the triazapentalene compound whose substituent group was -PhCN was dissolved in the above solvent. With regard to the concentration of each solution, the concentration of solution with dichloromethane being used as the solvent was 5.81×10^−6 mol/L, the concentration of solution with acetonitrile being used as the solvent was 3.65×10^−6 mol/L, the concentration of solution with benzene being used as the solvent was 5.43×10^−6 mol/L, and the concentration of solution with acetone being used as the solvent was 6.63×10^−6 mol/L. Using a […] (manufactured by Hitachi High-Technologies Corporation, F-4500), the ultraviolet absorption spectrum was measured, and the absorption maximum wavelength (λmax) was determined to be 382 nm. […] The fluorescence quantum yield was determined using 9,10-bis(phenyl ethynyl)anthracene (absolute fluorescence quantum yield=0.96) as a standard substance.

[5] = Fluorescence of disubstituted product (Example 7); assay type: physicochemical; settings: CH2Cl2 solution, excitation wavelength 370 nm
From the text: Disubstituted products other than the disubstituted product represented by the chemical formula 20 are synthesized by the same method as the disubstituted product represented by the chemical formula 20. The numerical values in Table 4 and Table 5 were obtained in CH2Cl2 solution under a condition of an excitation wavelength of 370 nm

[6] = standard substance; cited from earlier work

Row | ε (molar extinction coefficient) ([1]; dichloromethane solution) | λex (excitation wavelength, equal to absorption maximum wavelength λmax) ([1]; dichloromethane solution) | λem (emission wavelength) ([1]; dichloromethane solution) | φr (relative fluorescence quantum yield) [1] | λabs^max (maximum absorption wavelength) [2] | λem^max (maximum fluorescence wavelength) [2] | φF (fluorescence quantum yield) [2] | fluorescence intensity (FIG. 1) ([1]; dichloromethane solution) | absorption maximum wavelength (λmax) ([4]; acetone solutions) | solvatochromism of fluorescence spectrum (FIG. 2) ([4]; acetone, λex 382 nm) | λabs (absorption wavelength) [5] | λem (fluorescence wavelength) [5] | φF (quantum yield) [5] | Structure (SMILES) | Hammett σP of substituent group [3] | absolute fluorescence quantum yield [6]
1 | 3.02 10^3 cm − M^−1 | 376 nm | 510 nm | 51% | 376 nm | 510 nm | 0.51 | – | – | – | – | – | – | COC(=O)c1ccc(-c2cn3ccc[n+]3n2C)cc1 [Compound 1k] | 0.47 | –
2 | 3.82 10^3 cm − M^−1 | 326 nm | 419 nm | 3.0% | – | – | – | – | – | – | – | – | – | Cn1c(-c2ccccc2)cn2ccc[n+]12 [Compound 1f] | 0.00 | –
3 | 2.85 10^3 cm − M^−1 | 381 nm | 509 nm | 18% | 381 nm | 509 nm | 0.18 | stronger fluorescence intensity | 382 nm | significant solvatochromism was observed | 381 nm | 509 nm | 0.18 | Cn1c(-c2ccc(C#N)cc2)cn2ccc[n+]12 [Compound 1h] | 0.71 | –
4 | – | 330 nm | 481 nm | – | – | – | – | – | – | – | – | – | – | Cn1c(-c2cccc(C#N)c2)cn2ccc[n+]12 | – | –
5 | – | – | – | – | – | – | – | – | – | – | – | – | – | C(#Cc1c2ccccc2c(C#Cc2ccccc2)c2ccccc12)c1ccccc1 [9,10-bis(phenylethynyl)anthracene] | – | 0.96
6 | – | 412 nm | 556 nm | 16% | 412 nm | 556 nm | 0.16 | – | – | – | – | – | – | Cn1c(-c2ccc([N+](=O)[O-])cc2)cn2ccc[n+]12 [Compound 1m] | 0.81 | –
7 | 5.70 10^3 cm − M^−1 | 330 nm | 413 nm | 6.2% | 330 nm | 413 nm | 0.062 | – | – | – | – | – | – | COc1ccc(-c2cn3ccc[n+]3n2C)cc1 [Compound 1n] | −0.28 | –
